Measured values published in patent US8952024B2, “Herbicidal pyrimidone derivatives” (E I du Pont de Nemours and Company, priority 2009, dated 2015).

Tests used:
Type in all cases: in vivo
[1] = system: barnyardgrass (Echinochloa crus-galli); experiment: Test A pre-/postemergence plant response
Outline: (§1)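 Both pre- and postemergence treatments are applied simultaneously, using chemicals formulated in a non-phytotoxic solvent mixture with surfactant. Postemergence plants are 2–10 cm high with one to two leaves. After approximately ten days in a greenhouse, injury is scored visually from 0 (none) to 100 (complete control) relative to untreated plants.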

[2] = system: corn (Zea mays); experiment: Test A pre-/postemergence plant response
Outline: as §1

[3] = system: giant foxtail (Setaria faberii); experiment: Test A pre-/postemergence plant response
Outline: as §1

[4] = system: large crabgrass (Digitaria sanguinalis); experiment: Test A pre-/postemergence plant response
Outline: as §1

[5] = system: morningglory (Ipomoea spp.); experiment: Test A pre-/postemergence plant response
Outline: as §1

[6] = system: pigweed (Amaranthus retroflexus); experiment: Test A pre-/postemergence plant response
Outline: as §1

[7] = system: velvetleaf (Abutilon theophrasti); experiment: Test A pre-/postemergence plant response
Outline: as §1

[8] = system: wheat (Triticum aestivum); experiment: Test A pre-/postemergence plant response
Outline: as §1

[9] = system: barnyardgrass (Echinochloa crus-galli); experiment: Test B flooded paddy test; conditions: for Plant response rating, Flood, Barnyardgrass: 250 g ai/ha, flooded paddy test, visual rating on 0 to 100 scale (0 no effect, 100 complete control) after 13 to 15 days; for Plant response rating, Barnyardgrass: Flood (flooded paddy test), 13 to 15 days; for Barnyardgrass plant response rating: Flood, scale 0 to 100 (0 no effect, 100 complete control)
Outline: (§2)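 Post-flood paddy application: compounds are introduced into water 3 cm deep over the soil, reaching plants at the 2-leaf stage. The water level is maintained, and after 13–15 days under greenhouse conditions, response is judged by eye relative to controls, where 100 means complete control.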

[10] = system: ducksalad (Heteranthera limosa); experiment: Test B flooded paddy test; conditions: for Plant response rating, Flood, Ducksalad: 250 g ai/ha, flooded paddy test, visual rating on 0 to 100 scale (0 no effect, 100 complete control) after 13 to 15 days; for Plant response rating, Ducksalad: Flood (flooded paddy test), 13 to 15 days; for Ducksalad plant response rating: Flood, scale 0 to 100 (0 no effect, 100 complete control)
Outline: as §2

[11] = system: rice (Oryza sativa); experiment: Test B flooded paddy test; conditions: for Plant response rating, Flood, Rice: 250 g ai/ha, flooded paddy test, visual rating on 0 to 100 scale (0 no effect, 100 complete control) after 13 to 15 days; for Plant response rating, Rice: Flood (flooded paddy test), 13 to 15 days; for Rice plant response rating: Flood, scale 0 to 100 (0 no effect, 100 complete control)
Outline: as §2

[12] = system: umbrella sedge (Cyperus difformis); experiment: Test B flooded paddy test; conditions: for Plant response rating, Flood, Sedge, Umbrella: 250 g ai/ha, flooded paddy test, visual rating on 0 to 100 scale (0 no effect, 100 complete control) after 13 to 15 days; for Plant response rating, Sedge, Umbrella: Flood (flooded paddy test), 13 to 15 days; for Sedge, Umbrella plant response rating: Flood, scale 0 to 100 (0 no effect, 100 complete control)
Outline: as §2

[13] = Postemergence, 125 g ai/ha, visual injury, 0 to 100 scale (0 no effect, 100 complete control), approx. ten days
[14] = Postemergence, 500 g ai/ha, 0 to 100 scale, 0 = no effect, 100 = complete control, approx. ten days
[15] = Preemergence, 125 g ai/ha, 0 to 100 scale, 0 = no effect, 100 = complete control
[16] = Preemergence, 500 g ai/ha, visual injury, 0 to 100 scale (0 no effect, 100 complete control), approx. ten days
[17] = 31 g ai/ha, scale of 0 to 100 where 0 is no effect and 100 is complete control
[18] = 62 g ai/ha, scale of 0 to 100 where 0 is no effect and 100 is complete control
[19] = 125 g ai/ha, scale 0 to 100, 0 is no effect, 100 is complete control

Structure (SMILES): CCCCc1ncc(C(=O)C2=C(O)CCCC2=O)c(=O)n1-c1ccccc1C [Compound 62]
- Barnyardgrass plant response rating [1, 13]: 80
- Plant response rating, Barnyardgrass [1, 14]: 90
- Plant response rating, Barnyardgrass [1, 15]: 10
- Plant response rating, Barnyardgrass [1, 16]: 90
- Corn plant response rating [2, 13]: 30
- Plant response rating, Corn [2, 14]: 70
- Plant response rating, Corn [2, 15]: 0
- Plant response rating, Corn [2, 16]: 20
- Foxtail, Giant plant response rating [3, 13]: 70
- Plant response rating, Foxtail, Giant [3, 14]: 90
- Plant response rating, Foxtail, Giant [3, 15]: 60
- Plant response rating, Foxtail, Giant [3, 16]: 70
- Crabgrass, Large plant response rating [4, 13]: 70
- Plant response rating, Crabgrass, Large [4, 14]: 90
- Plant response rating, Crabgrass, Large [4, 15]: 60
- Plant response rating, Crabgrass, Large [4, 16]: 90
- Morningglory plant response rating [5, 13]: 100
- Plant response rating, Morningglory [5, 14]: 100
- Plant response rating, Morningglory [5, 15]: 90
- Plant response rating, Morningglory [5, 16]: 100
- Pigweed plant response rating [6, 13]: 90
- Plant response rating, Pigweed [6, 14]: 100
- Plant response rating, Pigweed [6, 15]: 80
- Plant response rating, Pigweed [6, 16]: 100
- Velvetleaf plant response rating [7, 13]: 100
- Plant response rating, Velvetleaf [7, 14]: 100
- Plant response rating, Velvetleaf [7, 15]: 70
- Plant response rating, Velvetleaf [7, 16]: 90
- Wheat plant response rating [8, 13]: 0
- Plant response rating, Wheat [8, 14]: 20
- Plant response rating, Wheat [8, 15]: 0
- Plant response rating, Wheat [8, 16]: 10
- Plant response rating, Flood, Barnyardgrass [9]: 0
- Plant response rating, Barnyardgrass [9, 17]: 0
- Plant response rating, Barnyardgrass [9, 18]: 0
- Plant response rating, Barnyardgrass [9, 19]: 0
- Plant response rating, Flood, Ducksalad [10]: 30
- Plant response rating, Ducksalad [10, 17]: 0
- Plant response rating, Ducksalad [10, 18]: 0
- Plant response rating, Ducksalad [10, 19]: 0
- Plant response rating, Flood, Rice [11]: 0
- Plant response rating, Rice [11, 17]: 0
- Plant response rating, Rice [11, 18]: 0
- Plant response rating, Rice [11, 19]: 0
- Plant response rating, Flood, Sedge, Umbrella [12]: 0
- Plant response rating, Sedge, Umbrella [12, 17]: 0
- Plant response rating, Sedge, Umbrella [12, 18]: 0
- Plant response rating, Sedge, Umbrella [12, 19]: 0

Structure (SMILES): O=C1CCCC(O)=C1C(=O)c1cnc(-c2cccs2)n(-c2ccccc2)c1=O [Compound 66]
- Barnyardgrass plant response rating [1, 13]: 80
- Plant response rating, Barnyardgrass [1, 14]: 90
- Plant response rating, Barnyardgrass [1, 15]: 20
- Plant response rating, Barnyardgrass [1, 16]: 70
- Plant response rating, Corn [2, 14]: 60
- Plant response rating, Corn [2, 15]: 0
- Plant response rating, Corn [2, 16]: 0
- Foxtail, Giant plant response rating [3, 13]: 70
- Plant response rating, Foxtail, Giant [3, 14]: 80
- Plant response rating, Foxtail, Giant [3, 16]: 80
- Crabgrass, Large plant response rating [4, 13]: 70
- Plant response rating, Crabgrass, Large [4, 14]: 90
- Plant response rating, Crabgrass, Large [4, 15]: 90
- Plant response rating, Crabgrass, Large [4, 16]: 100
- Morningglory plant response rating [5, 13]: 90
- Plant response rating, Morningglory [5, 14]: 90
- Plant response rating, Morningglory [5, 15]: 0
- Plant response rating, Morningglory [5, 16]: 30
- Pigweed plant response rating [6, 13]: 100
- Plant response rating, Pigweed [6, 14]: 100
- Plant response rating, Pigweed [6, 15]: 90
- Plant response rating, Pigweed [6, 16]: 100
- Velvetleaf plant response rating [7, 13]: 100
- Plant response rating, Velvetleaf [7, 14]: 100
- Plant response rating, Velvetleaf [7, 15]: 70
- Plant response rating, Velvetleaf [7, 16]: 100
- Wheat plant response rating [8, 13]: 0
- Plant response rating, Wheat [8, 14]: 0
- Plant response rating, Wheat [8, 15]: 0
- Plant response rating, Wheat [8, 16]: 0
- Plant response rating, Flood, Barnyardgrass [9]: 45
- Plant response rating, Barnyardgrass [9, 18]: 0
- Plant response rating, Barnyardgrass [9, 19]: 0
- Barnyardgrass plant response rating ([9]; 31 g ai/ha): 0
- Plant response rating, Flood, Ducksalad [10]: 20
- Plant response rating, Ducksalad [10, 18]: 0
- Plant response rating, Ducksalad [10, 19]: 0
- Ducksalad plant response rating ([10]; 31 g ai/ha): 0
- Plant response rating, Flood, Rice [11]: 20
- Plant response rating, Rice [11, 18]: 0
- Plant response rating, Rice [11, 19]: 0
- Rice plant response rating ([11]; 31 g ai/ha): 0
- Plant response rating, Flood, Sedge, Umbrella [12]: 50
- Plant response rating, Sedge, Umbrella [12, 18]: 0
- Plant response rating, Sedge, Umbrella [12, 19]: 30
- Sedge, Umbrella plant response rating ([12]; 31 g ai/ha): 0

Structure (SMILES): CC(C)Cc1ncc(C(=O)C2=C(O)CCCC2=O)c(=O)n1-c1ccccc1 [Compound 68]
- Barnyardgrass plant response rating [1, 13]: 80
- Plant response rating, Barnyardgrass [1, 14]: 90
- Plant response rating, Barnyardgrass [1, 15]: 0
- Plant response rating, Barnyardgrass [1, 16]: 50
- Corn plant response rating [2, 13]: 0
- Plant response rating, Corn [2, 14]: 10
- Plant response rating, Corn [2, 15]: 0
- Plant response rating, Corn [2, 16]: 0
- Foxtail, Giant plant response rating [3, 13]: 50
- Plant response rating, Foxtail, Giant [3, 14]: 70
- Plant response rating, Foxtail, Giant [3, 16]: 60
- Crabgrass, Large plant response rating [4, 13]: 80
- Plant response rating, Crabgrass, Large [4, 14]: 100
- Plant response rating, Crabgrass, Large [4, 15]: 70
- Plant response rating, Crabgrass, Large [4, 16]: 100
- Morningglory plant response rating [5, 13]: 90
- Plant response rating, Morningglory [5, 14]: 90
- Plant response rating, Morningglory [5, 15]: 20
- Plant response rating, Morningglory [5, 16]: 50
- Pigweed plant response rating [6, 13]: 100
- Plant response rating, Pigweed [6, 14]: 100
- Plant response rating, Pigweed [6, 15]: 90
- Plant response rating, Pigweed [6, 16]: 100
- Velvetleaf plant response rating [7, 13]: 100
- Plant response rating, Velvetleaf [7, 14]: 100
- Plant response rating, Velvetleaf [7, 15]: 70
- Plant response rating, Velvetleaf [7, 16]: 100
- Wheat plant response rating [8, 13]: 0
- Plant response rating, Wheat [8, 14]: 0
- Plant response rating, Wheat [8, 15]: 0
- Plant response rating, Wheat [8, 16]: 0
- Plant response rating, Flood, Barnyardgrass [9]: 20
- Plant response rating, Barnyardgrass [9, 18]: 0
- Plant response rating, Barnyardgrass [9, 19]: 0
- Barnyardgrass plant response rating ([9]; 31 g ai/ha): 0
- Plant response rating, Flood, Ducksalad [10]: 40
- Plant response rating, Ducksalad [10, 18]: 0
- Plant response rating, Ducksalad [10, 19]: 30
- Ducksalad plant response rating ([10]; 31 g ai/ha): 0
- Plant response rating, Flood, Rice [11]: 30
- Plant response rating, Rice [11, 18]: 15
- Plant response rating, Rice [11, 19]: 20
- Rice plant response rating ([11]; 31 g ai/ha): 0
- Plant response rating, Flood, Sedge, Umbrella [12]: 0
- Plant response rating, Sedge, Umbrella [12, 18]: 0
- Plant response rating, Sedge, Umbrella [12, 19]: 0
- Sedge, Umbrella plant response rating ([12]; 31 g ai/ha): 0

Structure (SMILES): O=C1CCCC(O)=C1C(=O)c1cnc(-c2cccc(Br)c2)n(-c2ccccc2)c1=O [Compound 69]
- Barnyardgrass plant response rating [1, 13]: 90
- Plant response rating, Barnyardgrass [1, 14]: 100
- Plant response rating, Barnyardgrass [1, 15]: 10
- Plant response rating, Barnyardgrass [1, 16]: 60
- Corn plant response rating [2, 13]: 20
- Plant response rating, Corn [2, 14]: 40
- Plant response rating, Corn [2, 15]: 0
- Plant response rating, Corn [2, 16]: 0
- Foxtail, Giant plant response rating [3, 13]: 80
- Plant response rating, Foxtail, Giant [3, 14]: 90
- Plant response rating, Foxtail, Giant [3, 15]: 40
- Plant response rating, Foxtail, Giant [3, 16]: 70
- Crabgrass, Large plant response rating [4, 13]: 80
- Plant response rating, Crabgrass, Large [4, 14]: 100
- Plant response rating, Crabgrass, Large [4, 15]: 90
- Plant response rating, Crabgrass, Large [4, 16]: 100
- Morningglory plant response rating [5, 13]: 100
- Plant response rating, Morningglory [5, 14]: 100
- Plant response rating, Morningglory [5, 15]: 0
- Plant response rating, Morningglory [5, 16]: 50
- Pigweed plant response rating [6, 13]: 100
- Plant response rating, Pigweed [6, 14]: 100
- Plant response rating, Pigweed [6, 15]: 100
- Plant response rating, Pigweed [6, 16]: 100
- Velvetleaf plant response rating [7, 13]: 100
- Plant response rating, Velvetleaf [7, 14]: 100
- Plant response rating, Velvetleaf [7, 15]: 70
- Plant response rating, Velvetleaf [7, 16]: 100
- Wheat plant response rating [8, 13]: 0
- Plant response rating, Wheat [8, 14]: 10
- Plant response rating, Wheat [8, 15]: 0
- Plant response rating, Wheat [8, 16]: 10
- Plant response rating, Flood, Barnyardgrass [9]: 30
- Plant response rating, Barnyardgrass [9, 18]: 0
- Plant response rating, Barnyardgrass [9, 19]: 20
- Barnyardgrass plant response rating ([9]; 31 g ai/ha): 0
- Plant response rating, Flood, Ducksalad [10]: 20
- Plant response rating, Ducksalad [10, 18]: 0
- Plant response rating, Ducksalad [10, 19]: 0
- Ducksalad plant response rating ([10]; 31 g ai/ha): 0
- Plant response rating, Flood, Rice [11]: 0
- Plant response rating, Rice [11, 18]: 0
- Plant response rating, Rice [11, 19]: 0
- Rice plant response rating ([11]; 31 g ai/ha): 0
- Plant response rating, Flood, Sedge, Umbrella [12]: 40
- Plant response rating, Sedge, Umbrella [12, 18]: 0
- Plant response rating, Sedge, Umbrella [12, 19]: 0
- Sedge, Umbrella plant response rating ([12]; 31 g ai/ha): 0
